The source of these data is US6730787B1, “2,4Dioxo-5-arylidenimino-1,3-pyrimidines” (priority 2001, dated 2004).

Values after ≈ are worked out from the molar mass of the structure shown. Read-outs that look alike come from different tables or passages of the source.

Data set [1] has as its system Herpes Simplex virus of the type I (HSV-I/Leningrad/248/88). Nature of the data set: Effect on Herpes Simplex virus: cytopathogenic effect in Vero cells. The format is cell-based. Particulars: for Quantity of the unchanged cells: number of cells in 100 visual fields. (Damage to the host cells serves as the signal in cytopathic effect assays.)
The test system of data set [2] is mice. Briefly: Analgesic activity (tail withdrawal from radiant heat). It is filed as in vivo. As for the experimental part: The time needed to draw back a tail placed under a directed source of radiant heat was estimated in a group of 3 mice. Prolongation of the response time by more than 50% after intraperitoneal dosing the substance (30 mg/kg) indicated analgesic activity. Analginum (2 mg/kg) was utilized as a reference agent.

The subject of data set [3] is Mycobaciterium tuberculosis H37RV. Briefly: Antimicrobial effect, serial dilution method (MIC). The format is cell-based, Mycobacterium tuberculosis. The settings on record: 72-hour cultivation at 37° C.
Data set [4] deals with mice. Nature of the data set: Psychodepressant activity (behavioral depression score). The format is in vivo. Particulars: one hour after per oral 300 mg/kg; total 60 points, less than 40 = significant behavioral depression; 3 mice. On the procedure:
Each parameter scores 2 points for an each mouse that had unchanged behavior. The total point sum was 60 (2×10×3 mice). Reducing score to less than 40 one hour after dosing with a substance per oral (300 mg/kg) denoted significant behavioral depression. Haloperidol was utilized as a reference agent.

Another data set has as its system no-breed white mice. The format is in vivo. Particulars: observed 72 hours, 300 was the maximally utilized concentration. On the procedure: Tested substance was introduced orally (in dose of 300 mg/kg) through a gastric tube or intraperitoneally (in dose of 100 mg/kg) to no-breed white mice with mass 18-20 g (each tested group consisted of 3 males and 3 females). Then the mouse state was observed during 72 hours. Absence of symptoms characteristic of toxic effects, or absence of animal death during the given time allows to make a conclusion that the toxicity of the tested substance is low. If acute toxicity effects are observed, the dose is reduced to find maximal tolerable dose.

Data set [5] has as its system primary culture of human lymphocytes. Briefly: Interferon-inducing activity in primary culture of human lymphocytes (IFN-α immunoenzyme test). The format is cell-based. As for the experimental part:
To obtain lymphocyte culture, fresh blood (within 12 hours after sampling) from healthy donors (not of group II) was used. To separate lymphocytes, heparinized blood obtained from healthy donor was centrifuged in a density gradient ficoll-verografin of […] in order to extract a fraction of immunocompetent cells. This fraction was selected and diluted with the nutrient medium RPMI-1640, containing 5% of fetal calf serum, 0.3 mg/ml of L-glutamin, 100 un/ml of penicillin, and 50 μg/ml of streptomycin. The concentration of lymphocytes was considered after dying them with methylene blue and calculation of cell number in a chamber of a hemocytometer. Initial solutions of the claimed compounds were diluted with the nutrient medium RPMI-1640 so that the final concentrations of the compounds which were obtained after introduction of lymphocyte suspension, constituted the raw: 100 μg/ml, 10 μg/ml, 1 μg/ml. The final concentration of lymphocytes in the induction mixture was 3×10^6 cell/ml.
Control and test samples were incubated for 24 hours at the temperature of 37° C. After incubation, the samples were centrifuged at 2,000 G to deposit cell elements, and IFN-containing supernatant was separate out of the samples; then the supernatant was analyzed for the quantitative content of IFN. Cell deposition was resuspended in the preceding volume of nutrient medium, colored with vital dye trypan blue, and cell number was counted in a chamber of a hemocytometer (as described above) to determine cytotoxic effect of the compounds.
Quantitative determination of the content of IFN in control and test samples was conducted using the immunoenzyme test system Pro Con IF2 Plus, that is intended for determination of IFN-α, which is produced by TOO <<Protein contour>>. The solid-phase immunoenzyme method, utilizing horse radish peroxidase as an indicator enzyme, was used to determine the quantity of interferon in the samples. Activity of the bonded peroxidase was measured using an automatic photometer for microplates with a microprocessor at the wavelength of 450 nm.
Based on the obtained results, a calibrating curve was formed, which allows to obtain data expressed in international units (IU) of activity, using the microprocessor of the automatic photometer. The results of the analysis are expressed in IU of activity of IFN per ml in the given induction system, which contains 3×10^6 lymphocyte/ml. Each test and control point was investigated in four parallels.
The obtained data were undergone a statistical analysis using t-criterion, and calculation of the confident interval of probability at p=0.05 was carried out. Coincidence between the results obtained in the parallel tests was analyzed.

For another data set, the system named is C.trachomatis D323. Nature of the data set: Effect on Chlamydia trachomatis in cell culture. The format is cell-based. The settings on record: for percentage of cell protection from infection / Number of unchanged cells: 100 mg/l, 48 hours; for Number of unchanged cells: counted in 100 visual fields; for activity against chlamydia (in words): compared with Ciprofloxacin / compounds of Table 5. As for the experimental part: The […] activity of the claimed compounds was studied in respect to C.trachomatis […], which is a standard strain contained in the collection of the department of microbiology of St. Petersburg State Pavlov Medical University. […] Cells were grown in flasks made of neutral glass in the medium RPMI-1640 containing 10% of fetal calf serum. The test was performed in flat-bottom flasks made of glass (non-toxic), that were supplied with cover glasses. The cells were introduced into the medium in the final concentration of 1×10^6 cell/ml. […] Simultaneously, tested compounds in a final concentration of 100 mg/l were added to the cells. The sample was centrifuged at 2400 G for 60 minutes at a room temperature and incubated at 37° C. for 2 hours. […] The samples were doubled using the medium without cycloheximide so as to exclude its effect on the investigated compounds. The samples were incubated for 48 hours in CO2-incubator. […] The effect of the compound was determined by analysis of the monolayer state and number of cells with CPI when compared with the control (cell culture infected with C.trachomatis […]); in doing so, the number of unchanged cells, that were counted in 100 visual fields obtained using the eyepiece-micrometer, was taken into consideration.

For a further data set, the system named is rats. Nature of the data set: Hepatoprotective activity (CCl4 liver damage, AlAT). The format is in vivo. On the procedure: CCl4 dissolved in 50% olive oil (1 ml/kg) was subcutaneously administrated to rats. Test substances were administrated perorally in a dose of 20 mg/kg 30 minutes before and 7 hours after the CCL4 administration. The activity of alanine-aminotranspherase (AlAT), which is a marker enzyme of liver parenchyma damage, was assessed twenty-four hours later. Reducing of enzyme amount by more than 30% relative to the control group was considered as evidence of hepatoprotective properties of the substance. Vitamin E in a dose of 100 mg/kg was used as a reference agent.

[6] abbreviates: Mycobacterium tuberculosis, H37RV, read-out: MIC.
The mark [7] stands for this setting: compound 100 μg/ml, 36 hours of incubation.

For `Nc1nc2c(ncn2COCCO)c(=O)[nH]1` [Acyclovir, reference compound], in data set [1] (Acyclovir 30 μg/ml), the “% of protection” value stood at 80% and the “Quantity of the unchanged cells” value was determined as 8000.

`Cc1c(N(C)CS(=O)(=O)[O-])c(=O)n(-c2ccccc2)n1C.[Na+]` [Analginum, reference compound]: the “Prolongation of the latent period of response (%)” value in the data set on mice [2] (Analginum 2 mg/kg, reference agent) amounted to 86%.

On to `CC[C@@H](CO)NCCN[C@@H](CC)CO` [Ethambutol], for which, in data set [3] (setting [6]), the MIC came to 5 mg/L (≈ 24.5 µM).

Take `O=C(CCCN1CCC(O)(c2ccc(Cl)cc2)CC1)c1ccc(F)cc1` [Haloperidol, reference compound]: the Point number in the data set with mice [4] was found to be 27.

`O=c1[nH]cc(N=Cc2ccccc2Cl)c(=O)[nH]1` [IV, 2,4-dioxo-5-(2-chlorobenzylidene) imino-1,3-pyrimidine]: in the data set with no-breed white mice, the “Maximal tolerable dose: Concentration of tested compounds (mg/l) at oral introducing” value (“Maximal tolerable dose: Concentration” for short) amounted to 300 mg/L. For the same molecule, the “Content of IFN in induction mixture after 24-hour incubation” value is given as 15,2 ± 0,3 IU/3 × 10^4 lymph./ml in data set [5] (substance 1 mg/l), 62,5 ± 1,3 IU/3 × 10^4 lymph./ml in data set [5] (substance 10 mg/l) and 123,6 ± 0,5 IU/3 × 10^4 lymph./ml in data set [5] (substance 100 mg/l).

As for `NNC(=O)c1ccncc1` [Isoniazid], the MIC in data set [3] (setting [6]) is 0.1 mg/L (≈ 0.729 µM).

On to `CC1COc2c(N3CCN(C)CC3)c(F)cc3c(=O)c(C(=O)O)cn1c23` (stereo not drawn) [Ofloxacin], for which the MIC in data set [3] (setting [6]) came to 0.5 mg/L (≈ 1.38 µM).

As to `[H]/N=C(/N)N[C@H]1[C@H](O)[C@@H](O)[C@H](O[C@@H]2O[C@@H](C)[C@](O)(C=O)[C@H]2O[C@@H]2O[C@@H](CO)[C@H](O)[C@@H](O)[C@@H]2NC)[C@@H](N/C(N)=N\[H])[C@@H]1O` [Streptomycin], the minimum inhibitory concentration (MIC) in data set [3] (setting [6]) was 0.2 mg/L (≈ 0.344 µM).

In data set [3], `O=c1[nH]cc(N=Cc2cc(Br)ccc2O)c(=O)[nH]1` [VIII, 2,4-dioxo-5-(2-hydroxy-5-bromobenzylidene) imino-1,3-pyrimidine] returned an MIC of 100 mg/L (≈ 322 µM). Moreover, the “Maximal tolerable dose: Concentration” value with no-breed white mice was found to be 300 mg/L.

Take `O=c1[nH]cc(N=Cc2ccc(Cl)cc2Cl)c(=O)[nH]1` [XI, 2,4-dioxo-5-(2,4-dichlorobenzylidene) imino-1,3-pyrimidine]: in the data set with C.trachomatis D323, the “percentage of cell protection from infection” value was 55%, the “Number of unchanged cells” value came out at 7.700 and the “activity against chlamydia (in words)” value is recorded as “marked activity against chlamydia”. For the same molecule, the “Maximal tolerable dose: Concentration” value in the data set on no-breed white mice was determined as 300 mg/L.

In turn, `O=c1[nH]cc(N=Cc2cc(Cl)cc(Cl)c2O)c(=O)[nH]1` [XII, 2,4-dioxo-5-(2-hydroxy-3,5-dichlorobenzylidene) imino-1,3-pyrimidine] gave a Point number in the data set with mice [4] of 35. Further, the minimum inhibitory concentration (MIC) in data set [3] is 100 mg/L (≈ 333 µM). For the same molecule, in the data set on mice [2] (intraperitoneal 30 mg/kg, more than 50% = analgesic activity), the “Prolongation of the latent period of response (%)” value came to 96%. Further, in data set [1] (setting [7]), the “% of protection” value amounted to 90% and the “Quantity of the unchanged cells” value was 9000. Moreover, the “% of reducing AIAT” value in the data set with rats (perorally 20 mg/kg 30 minutes before and 7 hours after CCl4, assessed 24 hours later, relative to control group) is −48%. Moreover, the “Maximal tolerable dose: Concentration” value in the data set on no-breed white mice came to 300 mg/L.

Regarding `O=c1[nH]cc(N=Cc2cc(Br)cc(Br)c2O)c(=O)[nH]1` [XIII, 2,4-dioxo-5-(2-hydroxy-3,5-dibromobenzylidene) imino-1,3-pyrimidine], in data set [1] (setting [7]), the “% of protection” value came to 80% and the “Quantity of the unchanged cells” value is listed as 8000. In the data set with no-breed white mice, the “Maximal tolerable dose: Concentration” value was determined as 300 mg/L.

For the molecule `O=c1[nH]cc(N=Cc2cc([N+](=O)[O-])ccc2O)c(=O)[nH]1` [XIX, 2,4-dioxo-5-(2-hydroxy-5-nitrobenzylidene) imino-1,3-pyrimidine], in data set [1] (setting [7]), the “% of protection” value was found to be 80% and the “Quantity of the unchanged cells” value amounted to 8000. In addition, in the data set with no-breed white mice, the “Maximal tolerable dose: Concentration” value came out at 300 mg/L.

Regarding `COc1cc(C=Nc2c[nH]c(=O)[nH]c2=O)ccc1O` [XV, 2,4-dioxo-5-(4-hydroxy-3-methoxybenzylidene) imino-1,3-pyrimidine], the “Maximal tolerable dose: Concentration” value with no-breed white mice is 300 mg/L. Besides, the “Content of IFN in induction mixture after 24-hour incubation” value is on record as 4,5 ± 1,6 IU/3 × 10^4 lymph./ml in data set [5] (substance 1 mg/l), 54,2 ± 1,8 IU/3 × 10^4 lymph./ml in data set [5] (substance 10 mg/l) and 105 ± 2 IU/3 × 10^4 lymph./ml in data set [5] (substance 100 mg/l).

`O=c1[nH]cc(N=Cc2ccccc2[N+](=O)[O-])c(=O)[nH]1` [XVIII, 2,4-dioxo-5-(2-nitrobenzylidene) imino-1,3-pyrimidine] returned a minimal inhibitory concentration (MIC) in data set [3] of 100 mg/L (≈ 384 µM). For the same molecule, the “Maximal tolerable dose: Concentration” value in the data set on no-breed white mice came to 300 mg/L.

Take `O=c1[nH]cc(N=Cc2cc(I)cc(I)c2O)c(=O)[nH]1` [XXIV, 2,4-dioxo-5-(2-hydroxy-3,5-diiodobenzylidene) imino-1,3-pyrimidine]: the minimal inhibitory concentration (MIC) in data set [3] stood at 100 mg/L (≈ 207 µM). Further, in the data set with no-breed white mice, the “Maximal tolerable dose: Concentration” value was 300 mg/L.

Turning to `CN(C)c1ccc(C=Nc2c[nH]c(=O)[nH]c2=O)cc1` [XXV, 2,4-dioxo-5-(4-dimethylamino-benzylidene) imino-1,3-pyrimidine], in the data set on C.trachomatis D323, the “percentage of cell protection from infection” value came to 55%, the “Number of unchanged cells” value amounted to 7.700 and the “activity against chlamydia (in words)” value is “marked activity against chlamydia”. For the same molecule, in the data set on no-breed white mice, the “Maximal tolerable dose: Concentration” value stood at 300 mg/L.

Rifampycin: the MIC in data set [3] came to 0.05 mg/L.

Take Vitamin E [reference compound]: the “% of reducing AIAT” value in the data set with rats (Vitamin E 100 mg/kg, reference agent) was −30%.

In general, MIC refers to the lowest concentration found to suppress growth.
